Laboratory results as given in patent publication US8034928B2, “Fluorescence assays with improved sensitivity” (Wisconsin Alumni Research Foundation, priority 2003, dated 2011).

Legend:
[1] = Stability: generation of fluorescence in PBS, DMEM or water without trigger; format: physicochemical; details: DMEM and PBS, 5 μM, no cells
Experimental: The biological utility of pro-fluorophore 3 was then studied. To be useful, a latent fluorophore must remain non-fluorescent or have a small fluorescence in a biological environment. Accordingly, the accumulation of fluorescence in Dulbecco's modified Eagle's medium (DMEM) and phosphate-buffered saline (PBS) containing either fluorescein diacetate (which is a widely used pro-fluorophore) or 3 were studied.
A solution of pro-fluorophore 3 (5 μM) in 2 mL PBS was treated with PLE (0.5 μg), and the mixture was kept at room temperature for 4 h. The fluorescence excitation-emission spectra of the solution were recorded. The procedure was repeated for a solution of pro-fluorophore 3 treated in an identical manner, except for the addition of PLE.

HeLa cells = assay: Fluorescence microscopy of HeLa cells incubated with pro-fluorophore in DMEM; format: cell-based; details: 10 μM, 2 h, 37° C., unwashed cells
Experimental: FIGS. 3B and C show unwashed HeLa cells incubated for 2 h with fluorescein diacetate (panel B; 10 μM) or 3 (panel C; 10 μM) at 37° C. in DMEM (5% CO2, 100% humidity). In FIG. 3C, the grey/white areas show the intensity of the fluorescence with the highest fluorescence shown as the lightest shade.
Fluorescence microscopy was used to determine the fate of fluorescein diacetate and pro-fluorophore 3 in DMEM containing HeLa cells.

accumulation of fluorescence in medium (stability) [1]: became fluorescent in minutes
SMILES: CC(=O)Oc1ccc2c(c1)Oc1cc(OC(C)=O)ccc1C21OC(=O)c2ccccc21 [fluorescein diacetate]
fluorescence in HeLa cells (HeLa cells): much greater in the medium than in HeLa cells
